In PubChem BioAssay AID2060511 (Molecular Pharmacology Branch, DTP, NCI, 2025):

Test system: 422866-222-R5-J1-PDC spheroids with HUVEC/MSC, viability
Experiment: Anticancer human tumor 422866-222-R5-J1-PDC patient-derived pancreatic adenocarcinoma cell line growth inhibition [GQUAD]
Conditions: for IC50: curve of first compound; for viability, T/C: stronger effect = lower value; active means viability on the fitted dose curve at most 10% of control; inactive means the rest
Summary of the method: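 Multi-cell-type spheroids of tumor cells with HUVEC and mesenchymal stem cells, treated with drug combinations. Concentrations descend in half-log steps from near clinical Cmax, or from 10 microM where Cmax is unknown; viability read-out.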

[1] = second compound 0.0316 µM, first compound 0.0316 µM
[2] = second compound 0.0316 µM, first compound 0.1 µM
[3] = second compound 0.0316 µM, first compound 0.316 µM
[4] = second compound 0.0316 µM, first compound 1 µM
[5] = second compound 0.0316 µM, first compound 3.16 µM
[6] = second compound 0.0316 µM, first compound 10 µM
[7] = second compound 0.1 µM, first compound 0.0316 µM
[8] = second compound 0.1 µM, first compound 0.1 µM
[9] = second compound 0.1 µM, first compound 0.316 µM
[10] = second compound 0.1 µM, first compound 1 µM
[11] = second compound 0.1 µM, first compound 3.16 µM
[12] = second compound 0.1 µM, first compound 10 µM
[13] = second compound 0.316 µM, first compound 0.0316 µM
[14] = second compound 0.316 µM, first compound 0.1 µM
[15] = second compound 0.316 µM, first compound 0.316 µM
[16] = second compound 0.316 µM, first compound 1 µM
[17] = second compound 0.316 µM, first compound 3.16 µM
[18] = second compound 0.316 µM, first compound 10 µM
[19] = second compound 1 µM, first compound 0.0316 µM
[20] = second compound 1 µM, first compound 0.1 µM
[21] = second compound 1 µM, first compound 0.316 µM
[22] = second compound 1 µM, first compound 1 µM
[23] = second compound 1 µM, first compound 3.16 µM
[24] = second compound 1 µM, first compound 10 µM
[25] = second compound 3.16 µM, first compound 0.0316 µM
[26] = second compound 3.16 µM, first compound 0.1 µM
[27] = second compound 3.16 µM, first compound 0.316 µM
[28] = second compound 3.16 µM, first compound 1 µM
[29] = second compound 3.16 µM, first compound 3.16 µM
[30] = second compound 3.16 µM, first compound 10 µM
[31] = second compound 10 µM, first compound 0.0316 µM
[32] = second compound 10 µM, first compound 0.1 µM
[33] = second compound 10 µM, first compound 0.316 µM
[34] = second compound 10 µM, first compound 1 µM
[35] = second compound 10 µM, first compound 3.16 µM
[36] = second compound 10 µM, first compound 10 µM
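Further: spheroids exposed to compounds for seven days before reading.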
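Wherever viability, T/C is given: percent viability relative to DMSO vehicle control taken as 100%.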

CC(C)n1c(=O)n(C)c2cnc3cc(F)c(-c4ccc(OCCCN5CCCCC5)nc4)cc3c21 + Cc1cnc(CNC(=O)c2c(=O)c3ccc(N4CCCN(C)CC4)nc3n3c2sc2ccccc23)cn1
inactive: viability, T/C [1] 81.6% | viability, T/C [2] 74.2% | viability, T/C [3] 75% | viability, T/C [4] 74% | viability, T/C [5] 76.7% | viability, T/C [6] 58.5% | viability, T/C [7] 84.9% | viability, T/C [8] 85.2% | viability, T/C [9] 75% | viability, T/C [10] 75.6% | viability, T/C [11] 90.8% | viability, T/C [12] 50.9% | viability, T/C [13] 86.2% | viability, T/C [14] 93% | viability, T/C [15] 96% | viability, T/C [16] 80.6% | viability, T/C [17] 90.8% | viability, T/C [18] 69.1% | viability, T/C [19] 87.5% | viability, T/C [20] 85.8% | viability, T/C [21] 87.3% | viability, T/C [22] 96% | viability, T/C [23] 96.7% | viability, T/C [24] 71% | viability, T/C [25] 74.5% | viability, T/C [26] 90.5% | viability, T/C [27] 81.1% | viability, T/C [28] 94.2% | viability, T/C [29] 92.6% | viability, T/C [30] 77.4% | viability, T/C [31] 70.9% | viability, T/C [32] 76.5% | viability, T/C [33] 82.2% | viability, T/C [34] 82.3% | viability, T/C [35] 85.5% | viability, T/C [36] 62.5%
> 10 µM: IC50 (second compound 0.0316 µM) | IC50 (second compound 0.1 µM) | IC50 (second compound 0.316 µM) | IC50 (second compound 1 µM) | IC50 (second compound 3.16 µM) | IC50 (second compound 10 µM)

CC1COCCN1c1cc(-c2ccnn2C)c2ccnc(-c3ccn[nH]3)c2n1 (stereo not drawn) + Cc1cnc(CNC(=O)c2c(=O)c3ccc(N4CCCN(C)CC4)nc3n3c2sc2ccccc23)cn1
> 10 µM: IC50 (second compound 0.0316 µM) | IC50 (second compound 0.316 µM) | IC50 (second compound 1 µM) | IC50 (second compound 3.16 µM) | IC50 (second compound 10 µM)
inactive: viability, T/C [1] 75.9% | viability, T/C [2] 61.6% | viability, T/C [3] 47.4% | viability, T/C [4] 38% | viability, T/C [5] 55% | viability, T/C [6] 81.7% | viability, T/C [7] 64.5% | viability, T/C [8] 53.1% | viability, T/C [9] 48.5% | viability, T/C [10] 41.6% | viability, T/C [11] 46.5% | viability, T/C [12] 89.7% | viability, T/C [13] 65.3% | viability, T/C [14] 60.9% | viability, T/C [15] 50.7% | viability, T/C [16] 40.5% | viability, T/C [17] 50.9% | viability, T/C [18] 69.9% | viability, T/C [19] 71.4% | viability, T/C [20] 68.7% | viability, T/C [21] 53.2% | viability, T/C [22] 53.1% | viability, T/C [23] 47.5% | viability, T/C [24] 67.7% | viability, T/C [25] 70.2% | viability, T/C [26] 74.8% | viability, T/C [27] 61% | viability, T/C [28] 59% | viability, T/C [29] 46.9% | viability, T/C [30] 61.8% | viability, T/C [31] 66.3% | viability, T/C [32] 66.9% | viability, T/C [33] 56% | viability, T/C [34] 51.6% | viability, T/C [35] 57.6% | viability, T/C [36] 53.1%
0.0316 µM: IC50 (second compound 0.1 µM)

CC1COCCN1c1cc(C2(O)CC3CCC(C2)O3)c2cnn(-c3ccn[nH]3)c2n1 (stereo not drawn) + Cc1cnc(CNC(=O)c2c(=O)c3ccc(N4CCCN(C)CC4)nc3n3c2sc2ccccc23)cn1
inactive: viability, T/C [1] 64.2% | viability, T/C [2] 43.7% | viability, T/C [3] 43.1% | viability, T/C [4] 61.8% | viability, T/C [5] 80.2% | viability, T/C [6] 82.9% | viability, T/C [7] 67.7% | viability, T/C [8] 51% | viability, T/C [9] 35.3% | viability, T/C [10] 49.2% | viability, T/C [11] 86.7% | viability, T/C [12] 90.4% | viability, T/C [13] 74.2% | viability, T/C [14] 61.2% | viability, T/C [15] 47.8% | viability, T/C [16] 47.4% | viability, T/C [17] 85.5% | viability, T/C [18] 81.9% | viability, T/C [19] 70.1% | viability, T/C [20] 63.9% | viability, T/C [21] 44.1% | viability, T/C [22] 53.6% | viability, T/C [23] 74.9% | viability, T/C [24] 85.4% | viability, T/C [25] 59.7% | viability, T/C [26] 63.5% | viability, T/C [27] 42.2% | viability, T/C [28] 46.2% | viability, T/C [29] 75.2% | viability, T/C [30] 76% | viability, T/C [31] 61.4% | viability, T/C [32] 62.4% | viability, T/C [33] 45.2% | viability, T/C [34] 36.8% | viability, T/C [35] 68.6% | viability, T/C [36] 78.5%
> 10 µM: IC50 (second compound 0.0316 µM) | IC50 (second compound 0.316 µM) | IC50 (second compound 1 µM)
0.0316 µM: IC50 (second compound 0.1 µM) | IC50 (second compound 3.16 µM) | IC50 (second compound 10 µM)

Cn1ncnc1[C@H]1c2n[nH]c(=O)c3cc(F)cc(c23)N[C@@H]1c1ccc(F)cc1 + Cc1cnc(CNC(=O)c2c(=O)c3ccc(N4CCCN(C)CC4)nc3n3c2sc2ccccc23)cn1
> 0.316 µM: IC50 (second compound 0.0316 µM) | IC50 (second compound 0.1 µM) | IC50 (second compound 0.316 µM) | IC50 (second compound 1 µM) | IC50 (second compound 3.16 µM) | IC50 (second compound 10 µM)
inactive: viability, T/C (second compound 0.0316 µM, first compound 0.000999 µM) 94.9% | viability, T/C (second compound 0.0316 µM, first compound 0.00316 µM) 85% | viability, T/C (second compound 0.0316 µM, first compound 0.00999 µM) 93.8% | viability, T/C [1] 81.2% | viability, T/C (second compound 0.0316 µM, first compound 0.0999 µM) 70.9% | viability, T/C [3] 69.4% | viability, T/C (second compound 0.1 µM, first compound 0.000999 µM) 89.1% | viability, T/C (second compound 0.1 µM, first compound 0.00316 µM) 91.2% | viability, T/C (second compound 0.1 µM, first compound 0.00999 µM) 81.1% | viability, T/C [7] 79.3% | viability, T/C (second compound 0.1 µM, first compound 0.0999 µM) 78.2% | viability, T/C [9] 71.8% | viability, T/C (second compound 0.316 µM, first compound 0.000999 µM) 91.6% | viability, T/C (second compound 0.316 µM, first compound 0.00316 µM) 78.6% | viability, T/C (second compound 0.316 µM, first compound 0.00999 µM) 87.4% | viability, T/C [13] 84% | viability, T/C (second compound 0.316 µM, first compound 0.0999 µM) 73.1% | viability, T/C [15] 83.9% | viability, T/C (second compound 1 µM, first compound 0.000999 µM) 75.8% | viability, T/C (second compound 1 µM, first compound 0.00316 µM) 77.4% | viability, T/C (second compound 1 µM, first compound 0.00999 µM) 80.7% | viability, T/C [19] 80.5% | viability, T/C (second compound 1 µM, first compound 0.0999 µM) 88.1% | viability, T/C [21] 74.9% | viability, T/C (second compound 3.16 µM, first compound 0.000999 µM) 86.3% | viability, T/C (second compound 3.16 µM, first compound 0.00316 µM) 71.5% | viability, T/C (second compound 3.16 µM, first compound 0.00999 µM) 82% | viability, T/C [25] 70.7% | viability, T/C (second compound 3.16 µM, first compound 0.0999 µM) 78.4% | viability, T/C [27] 71% | viability, T/C (second compound 10 µM, first compound 0.000999 µM) 75.2% | viability, T/C (second compound 10 µM, first compound 0.00316 µM) 78.2% | viability, T/C (second compound 10 µM, first compound 0.00999 µM) 77.3% | viability, T/C [31] 77.9% | viability, T/C (second compound 10 µM, first compound 0.0999 µM) 84% | viability, T/C [33] 66.9%
